Results taken from US20240299376A1, “METHOD OF TREATING A CONDITION USING A […] EFFECTIVE DOSE OF 1-(1-OXO-1,2-DIHYDROISOQUINOLIN-5-YL)-5-(TRIFLUOROMETHYL)-N-(2-(TRIFLUOROMETHYL)PYRIDIN-4-YL)-1H-PYRAZOLE-4-CARBOXAMIDE” (Janssen Pharmaceutica NV, priority 2021, published 2024).
Read-outs that look alike come from different tables or passages of the source.

Assay: FIH study 67856633LYM1001 plasma pharmacokinetics
Format: in vivo, human
Settings: human, plasma
Text: The study consists of a dose escalation phase (Part 1), to determine the recommended Phase 2 dose(s) (RP2D[s]), followed by an expansion phase at the RP2D(s) (Part 2). The dose escalation phase is supported using an adaptive dose escalation strategy guided by the modified continual reassessment method (mCRM) based on a Bayesian Logistic Regression Model (BLRM) with escalation with overdose control (EWOC) principle. The mCRM design allows the use of all cumulative dose-limiting toxicities (DLT) data up to the current dose cohort.
In Part 1, subjects were enrolled in cohorts of daily oral doses at 50 mg, 100 mg, 200 mg (1×200 mg or 4×50 mg), 300 mg (3×100 mg or 6×50 mg), 400 mg (2×200 mg or 8×50 mg), and 600 mg (3×200 mg), and loading dosing cohorts—400 mg loading dose once daily for 14 days, followed by 300 mg once daily, and 300 mg loading dose twice daily for 7 days followed by 300 mg once daily. In Part 2, subjects received daily oral doses of 300 mg.
In Part 1, PK data were available in subjects receiving doses of 50 mg (1×50 mg), 100 mg (2×50 mg), 200 mg (4×50 mg or 1×200 mg), 300 mg (6×50 mg or 3×100 mg), 400 mg (8×50 mg or 2×200 mg), and 600 mg (3×200 mg). Pharmacokinetic data were also available from the loading dose regimens of 400 mg (8×50 mg) loading dose once daily for 14 days followed by 300 mg (6×50 mg) once daily, and 300 mg (6×50 mg) loading dose twice daily for 7 days followed by 300 mg (6×50 mg) once daily.

O=C(Nc1ccnc(C(F)(F)F)c1)c1cnn(-c2cccc3c(=O)[nH]ccc23)c1C(F)(F)F [Compound A, 1-(1-oxo-1,2-dihydroisoquinolin-5-yl)-5-(trifluoromethyl)-N-[2-(trifluoromethyl)pyridin-4-yl]-1H-pyrazole-4-carboxamide]
AUC (oral, 100 mg, Cycle 2 Day 1, 50 mg capsule, cohort 2 × 50 mg, mean, read-out: AUCτ): 366 µg·h/mL
Cmax (oral, 100 mg, Cycle 2 Day 1, 50 mg capsule, cohort 2 × 50 mg, mean, read-out: Cmax): 19900 ng/mL
Tmax (oral, 100 mg, Cycle 2 Day 1, 50 mg capsule, cohort 2 × 50 mg, median, read-out: Tmax): 2 h
AUC (oral, 200 mg, Cycle 1 Day 1, 50 mg capsule, cohort 4 × 50 mg, Subject 100032 excluded, mean, read-out: AUCτ): 118 µg·h/mL
Cmax (oral, 200 mg, Cycle 1 Day 1, 50 mg capsule, cohort 4 × 50 mg, Subject 100032 excluded, mean, read-out: Cmax): 6750 ng/mL
Tmax (oral, 200 mg, Cycle 1 Day 1, 50 mg capsule, cohort 4 × 50 mg, Subject 100032 excluded, median, read-out: Tmax): 4 h
AUC (oral, 200 mg, Cycle 1 Day 1, 200 mg capsule, cohort 200 mg, mean, read-out: AUCτ): 61.9 µg·h/mL
Cmax (oral, 200 mg, Cycle 1 Day 1, 200 mg capsule, cohort 200 mg, mean, read-out: Cmax): 4060 ng/mL
Tmax (oral, 200 mg, Cycle 1 Day 1, 200 mg capsule, cohort 200 mg, median, read-out: Tmax): 4 h
AUC (oral, 200 mg, Cycle 1 Day 1, cohort 4 × 50 mg, with Subject 100032 data included, read-out: mean AUC): 139 µg·h/mL
Cmax (oral, 200 mg, Cycle 1 Day 1, cohort 4 × 50 mg, with Subject 100032 data included, read-out: mean Cmax): 8060 ng/mL
AUC (oral, 200 mg, Cycle 2 Day 1, 50 mg capsule, cohort 4 × 50 mg, Subject 100032 excluded, mean, read-out: AUCτ): 882 µg·h/mL
Cmax (oral, 200 mg, Cycle 2 Day 1, 50 mg capsule, cohort 4 × 50 mg, Subject 100032 excluded, mean, read-out: Cmax): 44800 ng/mL
Tmax (oral, 200 mg, Cycle 2 Day 1, 50 mg capsule, cohort 4 × 50 mg, Subject 100032 excluded, median, read-out: Tmax): 2 h
Cmax (oral, 200 mg, Cycle 2 Day 1, 200 mg capsule, cohort 200 mg, individual values, N = 2, read-out: Cmax): 25700 ng/mL
AUC (oral, 200 mg, Cycle 2 Day 1, 200 mg capsule, cohort 200 mg, read-out: AUCτ): 453 µg·h/mL
AUC (oral, 200 mg, Cycle 2 Day 1, cohort 4 × 50 mg, with Subject 100032 data included, read-out: mean AUC): 1140 µg·h/mL
Cmax (oral, 200 mg, Cycle 2 Day 1, cohort 4 × 50 mg, with Subject 100032 data included, read-out: mean Cmax): 58200 ng/mL
AUC (oral, 300 mg, Cycle 1 Day 1, 50 mg capsule, cohort 6 × 50 mg (300 mg QD), mean, n = 9, read-out: AUCτ): ~152 µg·h/mL
Cmax (oral, 300 mg, Cycle 1 Day 1, 50 mg capsule, cohort 6 × 50 mg (300 mg QD), mean, read-out: Cmax): ~8810 ng/mL
Tmax (oral, 300 mg, Cycle 1 Day 1, 50 mg capsule, cohort 6 × 50 mg (300 mg QD), median, read-out: Tmax): ~4 h
Cmax (oral, 300 mg, Cycle 1 Day 1, cohort 6 × 50 mg BID > QD (300 mg BID 7 days then 300 mg QD), mean, read-out: Cmax): 4310 ng/mL
Tmax (oral, 300 mg, Cycle 1 Day 1, cohort 6 × 50 mg BID > QD (300 mg BID 7 days then 300 mg QD), median, read-out: Tmax): ~6 h
AUC (oral, 300 mg, Cycle 2 Day 1, 50 mg capsule, cohort 6 × 50 mg (300 mg QD), mean, read-out: AUCτ): ~1140 µg·h/mL
Cmax (oral, 300 mg, Cycle 2 Day 1, 50 mg capsule, cohort 6 × 50 mg (300 mg QD), mean, read-out: Cmax): ~55200 ng/mL
Tmax (oral, 300 mg, Cycle 2 Day 1, 50 mg capsule, cohort 6 × 50 mg (300 mg QD), median, read-out: Tmax): ~4 h
Tmax (oral, 300 mg, Cycle 2 Day 1, cohort 6 × 50 mg BID > QD, individual values, N = 2, read-out: Tmax): ~3 h
AUC (oral, 400 mg, Cycle 1 Day 1, 50 mg capsule, cohort 8 × 50 mg, mean, read-out: AUCτ): 131 µg·h/mL
Cmax (oral, 400 mg, Cycle 1 Day 1, 50 mg capsule, cohort 8 × 50 mg, mean, read-out: Cmax): 7560 ng/mL
Tmax (oral, 400 mg, Cycle 1 Day 1, 50 mg capsule, cohort 8 × 50 mg, median, read-out: Tmax): 3 h
AUC (oral, 400 mg, Cycle 1 Day 1, 200 mg capsule, cohort 2 × 200 mg food adlib, mean, read-out: AUCτ): 112 µg·h/mL
Cmax (oral, 400 mg, Cycle 1 Day 1, 200 mg capsule, cohort 2 × 200 mg food adlib, mean, read-out: Cmax): 6830 ng/mL
Tmax (oral, 400 mg, Cycle 1 Day 1, 200 mg capsule, cohort 2 × 200 mg food adlib, median, read-out: Tmax): 4.5 h
AUC (oral, 400 mg, Cycle 1 Day 1, 200 mg capsule, cohort 2 × 200 mg, mean, read-out: AUCτ): 68 µg·h/mL
Cmax (oral, 400 mg, Cycle 1 Day 1, 200 mg capsule, cohort 2 × 200 mg, mean, read-out: Cmax): 4190 ng/mL
Tmax (oral, 400 mg, Cycle 1 Day 1, 200 mg capsule, cohort 2 × 200 mg, median, read-out: Tmax): 5 h
AUC (oral, 400 mg, Cycle 1 Day 1, cohort 8 × 50 mg > 6 × 50 mg (400 mg QD loading 14 days then 300 mg QD), Subject 100070 excluded, mean, read-out: AUCτ): 186 µg·h/mL
Cmax (oral, 400 mg, Cycle 1 Day 1, cohort 8 × 50 mg > 6 × 50 mg (400 mg QD loading 14 days then 300 mg QD), Subject 100070 excluded, mean, read-out: Cmax): 10300 ng/mL
Tmax (oral, 400 mg, Cycle 1 Day 1, cohort 8 × 50 mg > 6 × 50 mg (400 mg QD loading 14 days then 300 mg QD), median, read-out: Tmax): 3 h
AUC (oral, 400 mg, Cycle 1 Day 1, cohort 8 × 50 mg > 6 × 50 mg, with Subject 100070 data included, read-out: mean AUC): 237 µg·h/mL
Cmax (oral, 400 mg, Cycle 1 Day 1, cohort 8 × 50 mg > 6 × 50 mg, with Subject 100070 data included, read-out: mean Cmax): 12800 ng/mL
AUC (oral, 400 mg, Cycle 2 Day 1, 50 mg capsule, cohort 8 × 50 mg, mean, read-out: AUCτ): 1590 µg·h/mL
Cmax (oral, 400 mg, Cycle 2 Day 1, 50 mg capsule, cohort 8 × 50 mg, mean, read-out: Cmax): 94100 ng/mL
Tmax (oral, 400 mg, Cycle 2 Day 1, 50 mg capsule, cohort 8 × 50 mg, median, read-out: Tmax): 3.5 h
AUC (oral, 400 mg, Cycle 2 Day 1, 200 mg capsule, cohort 2 × 200 mg food adlib, mean, read-out: AUCτ): 1330 µg·h/mL
Cmax (oral, 400 mg, Cycle 2 Day 1, 200 mg capsule, cohort 2 × 200 mg food adlib, mean, read-out: Cmax): 72300 ng/mL
Tmax (oral, 400 mg, Cycle 2 Day 1, 200 mg capsule, cohort 2 × 200 mg food adlib, median, read-out: Tmax): 8 h
AUC (oral, 400 mg, Cycle 2 Day 1, 200 mg capsule, cohort 2 × 200 mg, mean, read-out: AUCτ): 824 µg·h/mL
Cmax (oral, 400 mg, Cycle 2 Day 1, 200 mg capsule, cohort 2 × 200 mg, mean, read-out: Cmax): 43200 ng/mL
Tmax (oral, 400 mg, Cycle 2 Day 1, 200 mg capsule, cohort 2 × 200 mg, median, read-out: Tmax): 3 h
AUC (oral, 600 mg, Cycle 1 Day 1, 200 mg capsule, cohort 3 × 200 mg, individual values, N = 2, read-out: AUCτ): 123 µg·h/mL
Cmax (oral, 600 mg, Cycle 1 Day 1, 200 mg capsule, cohort 3 × 200 mg, individual values, N = 2, read-out: Cmax): 7790 ng/mL
Tmax (oral, 600 mg, Cycle 1 Day 1, 200 mg capsule, cohort 3 × 200 mg, individual values, N = 2, read-out: Tmax): 3 h
Cmax (oral, Cycle 2 Day 1, cohort 8 × 50 mg > 6 × 50 mg (400 mg QD loading 14 days then 300 mg QD), Subject 100070 excluded, mean, read-out: Cmax): 72200 ng/mL
AUC (oral, Cycle 2 Day 1, cohort 8 × 50 mg > 6 × 50 mg, Subject 100070 excluded, mean, read-out: AUCτ): 1700 µg·h/mL
Tmax (oral, Cycle 2 Day 1, cohort 8 × 50 mg > 6 × 50 mg, Subject 100070 excluded, median, read-out: Tmax): 3 h
AUC (oral, Cycle 2 Day 1, cohort 8 × 50 mg > 6 × 50 mg, with Subject 100070 data included, read-out: mean AUC): 1810 µg·h/mL
Cmax (oral, Cycle 2 Day 1, cohort 8 × 50 mg > 6 × 50 mg, with Subject 100070 data included, read-out: mean Cmax): 79700 ng/mL
Tmax (po, 50 mg, Cycle 2 Day 1, 50 mg capsule, oral daily administration, read-out: median Tmax): 2 to 4 h
Tmax (po, 200 mg, Cycle 2 Day 1, 200 mg capsule, oral daily administration, read-out: median Tmax): 3 to 8 h
Tmax (po, first oral dose at Cycle 1 Day 1, doses of 50 to 600 mg, read-out: median Tmax): 3 to 6 h
